{
  "source": "patent US10064858B2",
  "about": "“Methods and compositions for treating bacterial infections with iron chelators” (THE UNITED STATES OF AMERICA, AS REPRESENTED BY THE …, priority 2011, dated 2018)",
  "format_in_all_cases": "cell-based",
  "key": {"[1]": {"tested_on": "A. baumannii AB 19606, AB 17978", "test": "Checkerboard assay, chelator with antibiotic (FIC)", "text": "Drug interactions were initially evaluated with the “checkerboard” microdilution design, which provided a matrix of all drug combinations assayed in terms of fractions of the previously determined MIC. The checkerboard microdilution design is described in R. J. Tallarida, “Drug Synergism: Its Detection and Applications,” Journal of Pharmacology and Experimental Therapeutics, 865-872 (2001); and in R. L. White, et al., (1996), supra. FIGS. 39A and 39B show the wellplates having different concentrations of iron chelator and antibiotic, as labeled along the x-axis and y-axis. […] The checkerboard assay was used to asses other combinations of iron chelators and antibiotics. The fractional inhibitory concentration index (FIC), which was calculated as follows: FIC=(MIC A in combination/MIC A)+(MIC B in combination/MIC B). […] Blank spaces indicate concentrations not tested. […] Against the species PA PAO1 and PA 27853, all the antibiotics except for Ami."}, "[2]": {"tested_on": "multi-drug resistant bacterial species", "test": "Checkerboard, synergy with rifampin (summary)", "text": "Drug interactions were initially evaluated with the “checkerboard” microdilution design, which provided a matrix of all drug combinations assayed in terms of fractions of the previously determined MIC. The checkerboard microdilution design is described in R. J. Tallarida, “Drug Synergism: Its Detection and Applications,” Journal of Pharmacology and Experimental Therapeutics, 865-872 (2001); and in R. L. White, et al., (1996), supra. FIGS. 39A and 39B show the wellplates having different concentrations of iron chelator and antibiotic, as labeled along the x-axis and y-axis.\nThe checkerboard assay was used to asses other combinations of iron chelators and antibiotics. The fractional inhibitory concentration index (FIC), which was calculated as follows: FIC=(MIC A in combination/MIC A)+(MIC B in combination/MIC B). Interaction was defined as synergistic if the FIC was <1.0, preferably <0.5, no interaction if the FIC was >1.0 and <4.0, and antagonistic if the FIC was >4.0.\nThe assay was run against the multi-drug resistant bacterial species AB 19606, AB 17978, KP ndm, PA PAO1, PA 27853, EC 35718, and EC 43888. Blank spaces indicate concentrations not tested. […] Against the species PA PAO1 and PA 27853, all the antibiotics except for Ami."}, "[3]": {"tested_on": "clinical isolates of A. baumannii", "test": "MIC for clinical isolates in CAMHB media (Table 3)", "conditions": "Acinetobacter baumannii", "description": "Individual MICs were determined following the microdilution method recommended by CLSI in cationic-adjusted Mueller-Hinton Broth (CAMHB), or M9 media. […] Tests were performed in triplicate. MIC of iron chelators were determined for noscomial ESKAPE pathogens."}, "E. coli EC35218": {"tested_on": "E. coli EC35218", "test": "Time-kill assay in CAMHB", "conditions": "1×MIC and 2×MIC VK28; CAMHB", "description": "Reductions in colony forming units (CFU)/mL were determined over time (time-kill assay) after exposure to VK28 and deferiprone (DFP), the two iron chelators that performed best in MIC assays when compared to controls. To better represent the iron content found in the human body, MIC and time-kill assays were also determined in minimal media and tissue culture media. Time-Kill assays were performed as previously described in G. P. Neupane et al., “In vitro time-kill activities of ciprofloxacin alone and in combination with the iron chelator deferasirox against Vibrio vulnificus,” European Journal of Clinical Microbiology and Infectious Diseases, 407-410 (2010); and R. L. White, et al., “Comparison of Three Different In Vitro Methods of Detecting synergy: Time-Kill, Checkerboard, and E test,” Journal of Antimicrobial Agents and Chemotherapy, 1914-1918 (1996). Initial inocula, for example 1×10^6 CFU/mL or 1×10^7 CFU/mL were challenged with iron chelator with and/or without an antibiotic. Cells were allowed to grow in CAMHB at 37° C. for 24 hours. Time-kill results were analyzed by determining the change in log 10 numbers of CFU/ml at 0, 6, and 24 h, compared to counts at 0 h. Antimicrobials were considered bactericidal at the lowest concentration that reduced the size of the original inoculum by >3 log 10 CFU/ml (99.9%) over each of the time periods and were considered bacteriostatic if the inoculum's size was reduced by 0 to <3 log 10 CFU/ml.\nIn this example, time-kill assays were performed as described in Example 9 against different multi-drug resistant bacteria, namely E. coli and MRSA.\nIn this example, time-kill assays were performed as described in Example 9 using ApoL1 as the iron chelator against two different E. coli strains. […] Time-kill results were analyzed by determining the change in log 10 numbers of CFU/mL at 6 and 24 hours.\nIn this example, time-kill assays were performed as described in Example 9 using Apo6619 as the iron chelator in combination with Rifampin against E. coli 35718. […] Time-kill results were analyzed by determining the change in log 10 numbers of CFU/mL at 0, 5 and 24 hours."}},
  "note": "Like-named read-outs stand apart in the source and are kept apart here.",
  "data": [
    {"smiles": "OCCN1CCN(Cc2ccc(O)c3ncccc23)CC1", "note": "[VK28, 5-(4-(2-hydroxyethyl)piperazin-1-ylmethyl)-8-hydroxyquinoline]", "values": [
      {"measurement": "FIC", "setting": "[1]; AB 17978, in combination with Amikacin", "result": 1.25},
      {"measurement": "FIC", "setting": "[1]; AB 17978, in combination with Cefotaxine", "result": 0.75},
      {"measurement": "FIC", "setting": "[1]; AB 17978, in combination with Colisitin (Colistin)", "result": 0.75},
      {"measurement": "FIC", "setting": "[1]; AB 17978, in combination with Doxycycline", "result": 1.25},
      {"measurement": "FIC", "setting": "[1]; AB 17978, in combination with Rifampin", "result": 0.75},
      {"measurement": "FIC", "setting": "[1]; AB 19606, in combination with Amikacin", "result": 1.25},
      {"measurement": "FIC", "setting": "[1]; AB 19606, in combination with Cefotaxine", "result": 1.25},
      {"measurement": "FIC", "setting": "[1]; AB 19606, in combination with Colisitin (Colistin)", "result": 0.75},
      {"measurement": "FIC", "setting": "[1]; AB 19606, in combination with Doxycycline", "result": 2.25},
      {"measurement": "FIC", "setting": "[1]; AB 19606, in combination with Rifampin", "result": 1.25},
      {"measurement": "synergy with rifampin, checkerboard", "setting": "[2]", "result": "moderate degrees of synergy"},
      {"measurement": "MIC", "setting": "[3]; AB967, read-out: MIC of Iron Chelators", "result": 250, "unit": "µg/mL"},
      {"measurement": "MIC", "setting": "[3]; AB2828, read-out: MIC of Iron Chelators", "result": 250, "unit": "µg/mL"},
      {"measurement": "MIC", "setting": "[3]; AB3340, read-out: MIC of Iron Chelators", "result": 250, "unit": "µg/mL"},
      {"measurement": "MIC", "setting": "[3]; AB3560, read-out: MIC of Iron Chelators", "result": 250, "unit": "µg/mL"},
      {"measurement": "MIC", "setting": "[3]; AB3638, read-out: MIC of Iron Chelators", "result": 250, "unit": "µg/mL"},
      {"measurement": "MIC", "setting": "[3]; AB3785, read-out: MIC of Iron Chelators", "result": 250, "unit": "µg/mL"},
      {"measurement": "MIC", "setting": "[3]; AB3806, read-out: MIC of Iron Chelators", "result": 500, "unit": "µg/mL"},
      {"measurement": "MIC", "setting": "[3]; AB3917, read-out: MIC of Iron Chelators", "result": 500, "unit": "µg/mL"},
      {"measurement": "MIC", "setting": "[3]; AB3927, read-out: MIC of Iron Chelators", "result": 250, "unit": "µg/mL"},
      {"measurement": "MIC", "setting": "[3]; AB4025, read-out: MIC of Iron Chelators", "result": 250, "unit": "µg/mL"},
      {"measurement": "MIC", "setting": "[3]; AB4026, read-out: MIC of Iron Chelators", "result": 250, "unit": "µg/mL"},
      {"measurement": "MIC", "setting": "[3]; AB4027, read-out: MIC of Iron Chelators", "result": 250, "unit": "µg/mL"},
      {"measurement": "MIC", "setting": "[3]; AB4052, read-out: MIC of Iron Chelators", "result": 500, "unit": "µg/mL"},
      {"measurement": "MIC", "setting": "[3]; AB4269, read-out: MIC of Iron Chelators", "result": 250, "unit": "µg/mL"},
      {"measurement": "MIC", "setting": "[3]; AB4448, read-out: MIC of Iron Chelators", "result": 250, "unit": "µg/mL"},
      {"measurement": "MIC", "setting": "[3]; AB4456, read-out: MIC of Iron Chelators", "result": 250, "unit": "µg/mL"},
      {"measurement": "MIC", "setting": "[3]; AB4490, read-out: MIC of Iron Chelators", "result": 250, "unit": "µg/mL"},
      {"measurement": "MIC", "setting": "[3]; AB4498, read-out: MIC of Iron Chelators", "result": 500, "unit": "µg/mL"},
      {"measurement": "MIC", "setting": "[3]; AB4795, read-out: MIC of Iron Chelators", "result": 250, "unit": "µg/mL"},
      {"measurement": "MIC", "setting": "[3]; AB4857, read-out: MIC of Iron Chelators", "result": 500, "unit": "µg/mL"},
      {"measurement": "MIC", "setting": "[3]; AB4878, read-out: MIC of Iron Chelators", "result": 500, "unit": "µg/mL"},
      {"measurement": "MIC", "setting": "[3]; AB4932, read-out: MIC of Iron Chelators", "result": 500, "unit": "µg/mL"},
      {"measurement": "MIC", "setting": "[3]; AB4957, read-out: MIC of Iron Chelators", "result": 500, "unit": "µg/mL"},
      {"measurement": "MIC", "setting": "[3]; AB4991, read-out: MIC of Iron Chelators", "result": 250, "unit": "µg/mL"},
      {"measurement": "MIC", "setting": "[3]; AB5001, read-out: MIC of Iron Chelators", "result": 250, "unit": "µg/mL"},
      {"measurement": "MIC", "setting": "[3]; AB5075, read-out: MIC of Iron Chelators", "result": 250, "unit": "µg/mL"},
      {"measurement": "MIC", "setting": "[3]; AB5197, read-out: MIC of Iron Chelators", "result": 250, "unit": "µg/mL"},
      {"measurement": "MIC", "setting": "[3]; AB5256, read-out: MIC of Iron Chelators", "result": 250, "unit": "µg/mL"},
      {"measurement": "MIC", "setting": "[3]; AB5674, read-out: MIC of Iron Chelators", "result": 250, "unit": "µg/mL"},
      {"measurement": "MIC", "setting": "[3]; AB5711, read-out: MIC of Iron Chelators", "result": 250, "unit": "µg/mL"},
      {"measurement": "time-kill effect", "setting": "E. coli EC35218", "result": "bacteriostatic (considered bacteriostatic if the inoculum's size was reduced by 0 to <3 log 10 CFU/ml)"}
    ]}
  ]
}
